# Test results from ChEMBL document CHEMBL1139256, “Identification of pharmacophore model, synthesis and biological evaluation of N-phenyl-1-arylamide and N-phenylbenzenesulfonamide derivatives as BACE 1 inhibitors” (Bioorg Med Chem, 2008).
# *1 amine or outer side, *2 acyl side, *3 side chain or, on linkers, in order; H or OH if unused. Where a SMILES comes first, the peptide text is derived from it. [ ]: non-standard residue; d: D form. LeuΨ(S-CHOHCH2)Ala = CC(C)C[C@H](N[*:1])[C@@H](O)C[C@@H](C)C(=O)[*:2]
# Target: T1, Beta-secretase 1 (Homo sapiens, UniProt P56817)
# T1 sequence (P56817 whole entry): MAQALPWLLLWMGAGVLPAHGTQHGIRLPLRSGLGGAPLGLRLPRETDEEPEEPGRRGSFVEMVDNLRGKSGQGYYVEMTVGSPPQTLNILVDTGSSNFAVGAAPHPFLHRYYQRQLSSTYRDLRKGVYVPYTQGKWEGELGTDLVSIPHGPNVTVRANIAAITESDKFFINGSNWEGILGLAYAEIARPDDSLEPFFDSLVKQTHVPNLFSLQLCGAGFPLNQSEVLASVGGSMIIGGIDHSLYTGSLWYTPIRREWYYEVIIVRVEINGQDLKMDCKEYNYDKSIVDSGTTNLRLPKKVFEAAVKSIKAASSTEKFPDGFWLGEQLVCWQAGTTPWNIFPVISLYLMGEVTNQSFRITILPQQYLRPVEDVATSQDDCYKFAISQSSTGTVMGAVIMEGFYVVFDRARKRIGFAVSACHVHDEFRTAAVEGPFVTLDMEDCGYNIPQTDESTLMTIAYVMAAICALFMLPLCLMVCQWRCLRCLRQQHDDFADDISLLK
# Assay: Inhibition of BACE1 at 20 ug/ml by FRET assay
# Conditions: not given
row,Compound,inhibition [%]
1,CN(CCOc1ccc(Br)cc1NC(=O)Cc1cccc2ccccc12)Cc1ccccc1,41.8
2,O=C(Cc1cccc2ccccc12)Nc1cc(Br)ccc1OCCN1CCOCC1,39.4
3,CCOC(=O)CN(C)CCOc1ccc(Br)cc1NC(=O)Cc1cccc2ccccc12,24.7
4,O=C(Cc1cccc2ccccc12)Nc1cc(Br)ccc1OCCNCCCO,15.1
5,CCOC(=O)C1CCN(CCOc2ccc(Br)cc2NC(=O)Cc2cccc3ccccc23)CC1,34.8

# The next lines start with the values.
row,inhibition [%],Compound
1,14.3,O=S(=O)(Nc1cc(Br)ccc1OCCN1CCOCC1)c1ccc(Br)cc1
2,83.7,NCCCCCCNCCOc1ccc(Br)cc1NC(=O)Cc1cccc2ccccc12
3,13.8,O=C(CCc1ccccc1)Nc1cc(Br)ccc1OCCN1CCOCC1
4,64.5,O=C(Cc1cccc2ccccc12)Nc1cc(Br)ccc1OCCNC1CCCCC1

# Target: T1, Beta-secretase 1
# Assay: Inhibition of BACE1 by FRET assay
# Conditions: not given
row,IC50 [µM],Compound
1,18.3,NCCCCCCNCCOc1ccc(Br)cc1NC(=O)Cc1cccc2ccccc12
2,47.1,O=C(Cc1cccc2ccccc12)Nc1cc(Br)ccc1OCCNC1CCCCC1

# Target: T1, Beta-secretase 1
# Conditions: 2 ug/ml
# Description: Inhibition of BACE1 at 2 ug/ml by FRET assay
row,inhibition [%],Compound
1,102,CC(C)C[C@H](NC(=O)[C@H](CC(N)=O)NC(=O)[C@@H](NC(=O)[C@@H](N)CCC(=O)O)C(C)C)[C@@H](O)C[C@@H](C)C(=O)N[C@@H](C)C(=O)N[C@@H](CCC(=O)O)C(=O)N[C@@H](Cc1ccccc1)C(=O)O (H-EVN[LeuΨ(S-CHOHCH2)Ala]AEF-OH)
